System: SARS-CoV-2
Test: microbe, parasite or virus in culture
Settings: Severe acute respiratory syndrome coronavirus 2, Vero C1008, 48 h

| Compound | IC50 [µM] | IC50 (read-out: pIC50 (converted)) [µM] |
| --- | --- | --- |
| COc1ccc(S(=O)(=O)Nc2cccnc2Nc2ccc(O)cc2)cc1 [ABT-751] | > 20 | > 20 |
| Cc1c(NC(=O)OC[C@@H]2COCCN2)cn2ncnc(Nc3ccc4c(cnn4Cc4cccc(F)c4)c3)c12 [AC-480] | > 20 | > 20 |
| COc1ccc(-c2cc(=O)c3c(O)cc(O)cc3o2)cc1 [ACACETIN] | > 20 | > 20 |
| NC(=O)c1ncn([C@@H]2O[C@H](CO)[C@@H](O)[C@H]2O)c1N [ACADESINE] | > 20 | > 20 |
| CCCC(=O)Nc1ccc(OCC(O)CNC(C)C)c(C(C)=O)c1 (centres undefined) [ACEBUTOLOL] | > 20 | > 20 |
| CCN(CC)CCNC(=O)c1ccc(NC(C)=O)cc1 [ACECAINIDE] | > 20 | > 20 |
| CC(=O)OC1CN2CCC1CC2 (centres undefined) [ACECLIDINE] | > 20 | > 20 |
| O=C(O)COC(=O)Cc1ccccc1Nc1c(Cl)cccc1Cl [ACECLOFENAC] | > 20 | > 20 |
| CC(=O)Nc1ccc(S(=O)(=O)c2ccc(NC(C)=O)cc2)cc1 [ACEDAPSONE] | > 20 | > 20 |
| Nc1ccc(S(=O)(=O)c2ccc(NCC(=O)O)cc2)cc1 [ACEDIASULFONE] | > 20 | > 20 |
| CC(=O)Nc1ccc(C(=O)O)cc1 [ACEDOBEN] | > 20 | > 20 |
| Cn1c(=O)c2c(ncn2CC(=O)O)n(C)c1=O [ACEFYLLINE] | > 20 | > 20 |
| CC(=O)NC(CCC(=O)O)C(=O)O (centres undefined) [ACEGLUMATE] | > 20 | > 20 |
| COc1ccc2c(c1)c(CC(=O)OCC(=O)O)c(C)n2C(=O)c1ccc(Cl)cc1 [ACEMETACIN] | > 20 | > 20 |
| CC(=O)CC(c1ccc([N+](=O)[O-])cc1)c1c(O)c2ccccc2oc1=O (centres undefined) [ACENOCOUMAROL] | > 20 | > 20 |
| CC(=O)Nc1ccc(O)cc1 [ACETAMINOPHEN] | > 20 | > 20 |
| CC(=O)Nc1ccccc1 [ACETANILIDE] | > 20 | > 20 |
| CC(=O)Nc1nnc(S(N)(=O)=O)s1 [ACETAZOLAMIDE] | > 20 | > 20 |
| CC(=O)c1ccc(S(=O)(=O)NC(=O)NC2CCCCC2)cc1 [ACETOHEXAMIDE] | > 20 | > 20 |
| CC(=O)NO [ACETOHYDROXAMIC ACID] | > 20 | > 20 |
| CC(=O)Oc1cc(C)c(OC(C)=O)c2ccccc12 [ACETOMENAPHTHONE] | > 20 | > 20 |
| CC(=O)Nc1c(I)cc(I)c(C(=O)O)c1I [ACETRIZOIC ACID] | > 20 | > 20 |
| CC(=O)N[C@@H](Cc1ccc(O)cc1)C(=O)O [ACETYL TYROSINE] | > 20 | > 20 |
| CC(=O)OCC[N+](C)(C)C [ACETYLCHOLINE] | > 20 | > 20 |

| Compound | IC50 [µM] | IC50 (read-out: pIC50 (converted)) [µM] |
| --- | --- | --- |
| CC(=O)N[C@@H](CS)C(=O)O [ACETYLCYSTEINE] | > 20 | > 20 |
| CC(=O)N[C@@H](Cc1c[nH]c2ccccc12)C(N)=O [ACETYLTRYPTOPHANAMIDE] | > 20 | > 20 |
| CC(=O)NCCCCCC(=O)O [ACEXAMIC ACID] | > 20 | > 20 |
| Cc1cnc(C(=O)O)c[n+]1[O-] [ACIPIMOX] | > 20 | > 20 |
| COc1cc(C)c(/C=C/C(C)=C/C=C/C(C)=C/C(=O)O)c(C)c1C [ACITRETIN] | > 20 | > 20 |
| CC(=O)OC(C)C(=O)OCC[N+](C)(C)C (centres undefined) [ACLATONIUM] | > 20 | > 20 |
| COc1c(N2CCC/C(=C(\F)CN)C2)c(F)cc2c(=O)c(C(=O)O)cn(C3CC3)c12 [ACORAFLOXACIN] | > 20 | > 20 |
| CC(=O)NCC1(c2ccccc2)CCN(CC2COc3ccccc3O2)CC1 (centres undefined) [ACOXATRINE] | > 20 | > 20 |
| CC(=O)OCC(=O)Nc1cc(C#N)cc(NC(=O)COC(C)=O)c1Cl [ACREOZAST] | > 20 | > 20 |
| Cc1ccc(/C(=C\CN2CCCC2)c2cccc(/C=C/C(=O)O)n2)cc1 [ACRIVASTINE] | > 20 | > 20 |
| CC(=O)Nc1ccc(CC(=O)O)cc1 [ACTARIT] | > 20 | > 20 |
| Nc1nc2c(ncn2COCCO)c(=O)[nH]1 [ACYCLOVIR] | > 20 | > 20 |
| CC(C)OC(=O)[C@H](C)N[P@](=O)(OC[C@@]1(F)O[C@@H](n2ccc(=O)[nH]c2=O)[C@](C)(O)[C@@H]1O)Oc1ccccc1 [ADAFOSBUVIR] | > 20 | > 20 |
| O=C(NCCN1CCN(c2ncccn2)CC1)C12CC3CC(CC(C3)C1)C2 [ADATANSERIN] | > 20 | > 20 |
| C=CCn1c(=O)c2cnc(Nc3ccc(N4CCN(C)CC4)cc3)nc2n1-c1cccc(C(C)(C)O)n1 [ADAVOSERTIB] | > 20 | > 20 |
| Nc1[nH]cnc2ncnc1-2 [ADENINE] | > 20 | > 20 |
| Nc1ncnc2c1ncn2[C@@H]1O[C@H](COP(=O)(O)O)[C@@H](O)[C@H]1O [ADENOSINE PHOSPHATE] | > 20 | > 20 |
| Nc1ncnc2c1ncn2[C@@H]1O[C@H](COP(=O)(O)OP(=O)(O)OP(=O)(O)O)[C@@H](O)[C@H]1O [ADENOSINE TRIPHOSPHATE] | > 20 | > 20 |
| Nc1ncnc2c1ncn2[C@@H]1O[C@H](CO)[C@@H](O)[C@H]1O [ADENOSINE] | > 20 | > 20 |
| CC1(C)C(=O)Nc2cc3[nH]c(-c4ccncc4)nc3cc21 [ADIBENDAN] | > 20 | > 20 |
| CCN(CC)CCOC(=O)C(c1ccccc1)c1ccccc1 [ADIPHENINE] | > 20 | > 20 |
| CNCC(=O)c1ccc(O)c(O)c1 [ADRENALONE] | > 20 | > 20 |
| C[C@]12CCC(=O)C=C1CC[C@@H]1[C@@H]2C(=O)C[C@]2(C)C(=O)CC[C@@H]12 [ADRENOTERONE] | > 20 | > 20 |
| CCN1CCN(Cc2ccc(-c3cc4c(N[C@H](C)c5ccccc5)ncnc4[nH]3)cc2)CC1 [AEE-788] | > 20 | > 20 |

| Compound | IC50 [µM] | IC50 (read-out: pIC50 (converted)) [µM] |
| --- | --- | --- |
| CC(=O)NC(Cc1ccccc1)C(=O)O (centres undefined) [AFALANINE] | > 20 | > 20 |
| CN(C)C/C=C/C(=O)Nc1cc2c(Nc3ccc(F)c(Cl)c3)ncnc2cc1O[C@H]1CCOC1 [AFATINIB] | > 20 | > 20 |
| CC/C(=C(\c1ccc(O)cc1)c1ccc(OCCN(C)C)cc1)c1ccccc1 [AFIMOXIFENE] | > 20 | > 20 |
| Cc1c(CN(C)C(=O)/C=C/c2cnc3c(c2)CCC(=O)N3)oc2ccccc12 [AFN-1252] | > 20 | > 20 |
| CC(C)(C)NCC(O)COc1cccc2c1C(=O)OC2 (centres undefined) [AFUROLOL] | > 20 | > 20 |
| COc1ccc2cccc(CCNC(C)=O)c2c1 [AGOMELATINE] | > 20 | > 20 |
| NC(=O)c1ccc([N+](=O)[O-])cc1Cl [AKLOMIDE] | > 20 | > 20 |
| Nc1ncc(-c2ccncc2)nc1Nc1ccc2[nH]ccc2c1 [AKN-028] | > 20 | > 20 |
| CC(N)C(=O)OC(C)(C)Cc1ccc(Cl)cc1 (centres undefined) [ALAPROCLATE] | > 20 | > 20 |
| CCCSc1ccc2[nH]c(NC(=O)OC)nc2c1 [ALBENDAZOLE] | > 20 | > 20 |
| CC(C)(C)NCC(O)c1ccc(O)c(CO)c1 (centres undefined) [ALBUTEROL] | > 20 | > 20 |
| CN1CCC(=C2c3ccccc3CCn3c(C=O)cnc32)CC1 [ALCAFTADINE] | > 20 | > 20 |
| C=CCOc1ccc(CC(=O)O)cc1Cl [ALCLOFENAC] | > 20 | > 20 |
| CCC(=O)OCC(=O)[C@@]1(OC(=O)CC)[C@H](C)C[C@H]2[C@H]3[C@H]([C@@H](O)C[C@@]21C)[C@@]1(C)C=CC(=O)C=C1C[C@H]3Cl [ALCLOMETASONE DIPROPIONATE] | > 20 | > 20 |
| CCc1cc2c(cc1N1CCC(N3CCOCC3)CC1)C(C)(C)c1[nH]c3cc(C#N)ccc3c1C2=O [ALECTINIB] | > 20 | > 20 |
| NCCCC(O)(P(=O)(O)O)P(=O)(O)O [ALENDRONIC ACID] | > 20 | > 20 |
| C=CCC(N)Cc1ccccc1 (centres undefined) [ALETAMINE] | > 20 | > 20 |
| CCCCC(CC)CNC(=N)NC(=N)NCCCCCCNC(=N)NC(=N)NCC(CC)CCCC (centres undefined) [ALEXIDINE] | > 20 | > 20 |
| OC[C@H]1O[C@@H]2O[C@H]3[C@H](O)[C@@H](O)[C@@H](O[C@H]4[C@H](O)[C@@H](O)[C@@H](O[C@H]5[C@H](O)[C@@H](O)[C@@H](O[C@H]6[C@H](O)[C@@H](O)[C@@H](O[C@H]7[C@H](O)[C@@H](O)[C@@H](O[C@H]1[C@H](O)[C@H]2O)O[C@@H]7CO)O[C@@H]6CO)O[C@@H]5CO)O[C@@H]4CO)O[C@@H]3CO [ALFADEX] | > 20 | > 20 |
| CC(=O)[C@H]1CC[C@H]2[C@@H]3CC[C@H]4C[C@H](O)CC[C@]4(C)[C@H]3C(=O)C[C@]12C [ALFAXALONE] | > 20 | > 20 |
| COc1cc2nc(N(C)CCCNC(=O)C3CCCO3)nc(N)c2cc1OC (centres undefined) [ALFUZOSIN] | > 20 | > 20 |
| COc1cc(Nc2ncc3c(n2)-c2ccc(Cl)cc2C(c2c(F)cccc2OC)=NC3)ccc1C(=O)O [ALISERTIB] | > 20 | > 20 |
| C/C=C/C[C@@H](C)[C@@H](O)[C@H]1C(=O)N[C@@H](CC)C(=O)N(C)[C@H](C)C(=O)N(CC)[C@@H](C(C)C)C(=O)N[C@@H](C(C)C)C(=O)N(C)[C@@H](CC(C)C)C(=O)N[C@@H](C)C(=O)N[C@H](C)C(=O)N(C)[C@@H](CC(C)C)C(=O)N(C)[C@@H](CC(C)C)C(=O)N(C)[C@@H](C(C)C)C(=O)N1C [ALISPORIVIR] | > 20 | > 20 |
| C=CCN1CCCC1CNC(=O)c1cc2nn[nH]c2cc1OC (centres undefined) [ALIZAPRIDE] | > 20 | > 20 |
